This assay relates to rhinocerase. As to conditions: read-out: Km ^a; 0.1M Tris-HCl pH 7.4, 37°C, 7 min; 100 µg enzyme.

Consider one molecule from article PMC2837349 (PLoS ONE, 2010).

The structures appear in SMILES notation. Counter-ions that a name gives are not always drawn.

Regarding `Cc1cc(=O)oc2cc(NC(=O)[C@H](CCCNC(=N)N)NC(=O)c3ccccc3)ccc12` [Arg-AMC, Nα-benzoyl-L-arginine 7-amido-4-methylcoumarin.HCl], the Km – broadly, the concentration of substrate that gives half-maximal velocity – is 80 ± 2.02 µM.
